Data from US6335337B1, “Substituted piperazinones and their therapeutic uses” (Laboratoire L. Lafon, priority 1998, dated 2002).
Structures can show the parent of a compound that is named as a salt.

Columns and labels:
Guinea Pig Platelets = assay: In vitro inhibition of collagen-induced platelet aggregation, guinea pig platelet-rich plasma; format: cell-based; conditions: guinea pig PRP, collagen 1 μg/ml, 3 minutes of contact at 37° C.
Protocol: A study of the inhibitory activity of the compounds of formula (I) on platelet aggregation was carried out in vitro, i.e. by direct contact of solutions of variable concentrations of the compounds with platelets freshly separated from a sample of total blood, taken under standardized conditions, from laboratory animals (guinea pigs) and from healthy human subjects who have not received any substances or drugs that might interfere with blood clotting. The anti-platelet-aggregating activity was also studied ex vivo/vitro, i.e. after administration of the substances claimed to guinea pigs to measure the intensity and duration of the anti-aggregating action induced by the fraction of the test product absorbed and circulating in the blood.
Blood is taken by intracardiac puncture from male Dunkin-Hartley guinea pigs (weighing about 330 g), at a rate of 4.5 ml per 0.5 ml of trisodium citrate (concentration of the aqueous solution: 1.55%;) in order to prevent all trace of clotting. The platelet-rich plasma (PRP) is obtained by centrifuging the tubes of total blood for 15 minutes at 150 g.
The PRPs are collected as “pools”. The platelets contained in these pools are counted using a Coulter ZM haematology automatic device: if necessary, a dilution is carried out in order for the platelet concentration in the plasma to be between 200000 and 400000 platelets/mm^3. Simultaneously, other samples of these pools serve to prepare the platelet-poor plasma (PPP) by centrifugation at 1500 g for 15 minutes.
The kinetic study of the platelet aggregation is carried out by adding a collagen solution (1 μg/ml) to a volume of PRP, using a Chrono-log Corporation aggregometer (490-D1, or 560 VS) which uses an optical detection of the appearance of the thrombus.
The determination of the 50%; inhibitory concentration (IC50) is carried out by adding a given volume of solvent (control reference) and increasing concentrations: 1.5×10^−8 M, 7×10^−8 M, 1.5×10^−7 M, 3×10^−7 M, 7×10^−7 M, 1.5×10^−6 M and […], of the compounds to samples of the pools of PRP. The measurements of the aggregation inhibition are carried out after 3 minutes of contact at 37° C. with agitation.

Human Platelets = assay: In vitro inhibition of collagen-induced platelet aggregation, human platelet-rich plasma; format: cell-based; conditions: 0.05 h, human PRP, collagen 5 μg/ml, 3 minutes of contact at 37° C., read-out: IC50(M) in vitro Man
Protocol: A study of the inhibitory activity of the compounds of formula (I) on platelet aggregation was carried out in vitro, i.e. by direct contact of solutions of variable concentrations of the compounds with platelets freshly separated from a sample of total blood, taken under standardized conditions, from laboratory animals (guinea pigs) and from healthy human subjects who have not received any substances or drugs that might interfere with blood clotting. The anti-platelet-aggregating activity was also studied ex vivo/vitro, i.e. after administration of the substances claimed to guinea pigs to measure the intensity and duration of the anti-aggregating action induced by the fraction of the test product absorbed and circulating in the blood. Venous blood is taken from a group of ten healthy human subjects of the same age, by puncture into a vein of the fold of the elbow and is collected in a glass tube containing aqueous 0.129 M sodium citrate solution (1 volume of citrate solution per 9 volumes of blood). Each tube is then centrifuged a first time at 20° C. and 100 g for 15 minutes in order to obtain the platelet-rich plasma (PRP); after removing this PRP, the tube is again centrifuged at 2000 g for 15 minutes in order this time to remove the platelet-poor plasma (PPP). For each identified sample of PRP, the platelets are counted using a Coulter ZM counter. Each sample is then used to study the variation in inhibition of the platelet aggregation triggered by the addition of a Chromo-par-Reagent collagen glucose solution from Coultronics (used at a concentration of 5 μg/ml) as a function of the addition of increasing concentrations of each compound in a range covering the interval 10^-8 M→10^-5 M, (example of concentrations: 10^-8 […]). Beforehand, for each compound, an aqueous 10^-3 M solution is prepared. A control test intended to check the possible effect of the solvents (reference value) on the platelet aggregation is introduced into each measurement series, and the aggregation is measured after 3 minutes of contact at 37° C. with agitation. From the percentages of inhibition of the platelet aggregation measured for each concentration of each compound, the 50%; inhibitory concentration (IC50) is calculated.

[1] = Cavia porcellus, Platelet, 0.05 h

Row | IC50 (Guinea Pig Platelets; [1]) | IC50 (Human Platelets) | Structure (SMILES) | IC50 (Guinea Pig Platelets)
1 | 0.11 µM | 1e-05 M | CCOC(=O)[C@H](CNC(=O)CN1CCN(c2ccc(C(=N)N)cc2)CC1=O)NS(=O)(=O)c1ccccc1 [Example 17, ethyl (2S)-3-{[2-(4-{4-[amino(imino)methyl]phenyl}-2-oxopiperazino)acetyl]amino}-2-[(phenylsulphonyl)amino]propanoate acetate] | 
2 | 0.91 µM | 3.2e-05 M | CCOC(=O)[C@H](CNC(=O)CN1CCN(c2ccc(C(=N)N)cc2)CC1=O)NS(=O)(=O)c1cccnc1 [Example 18, Ethyl (2S)-3-{[2-(4-{4-[amino(imino)methyl]phenyl}-2-oxopiperazino)acetyl]amino}-2-[(3-pyridylsulphonyl)amino]propanoate diacetate] | 
3 | 0.25 µM | 8.2e-06 M | CCOC(=O)[C@H](CNC(=O)CN1CCN(c2ccc(C(=N)N)cc2)CC1=O)NS(=O)(=O)c1cccc2c1NCCC2 [Example 19, Ethyl (2S)-3-{[2-(4-{4-[amino(imino)methyl]phenyl}-2-oxopiperazino)acetyl]amino}-2-[(1,2,3,4-tetrahydro-8-quinolinylsulphonyl)amino]propanoate acetate] | 
4 | 0.42 µM | 1.8e-05 M | CCOC(=O)[C@H](CNC(=O)CN1CCN(c2ccc(C(=N)N)cc2)CC1=O)NS(=O)(=O)c1ccc(C)cc1 [Example 23, Ethyl (2S)-3-{[2-(4-{4-[amino(imino)methyl]phenyl}-2-oxopiperazino)acetyl]amino}-2-{[4-toluenesulphonyl]amino}propanoate acetate] | 
5 | 0.32 µM | 9.3e-06 M | CCOC(=O)[C@H](CNC(=O)CN1CCN(c2ccc(C(=N)N)cc2)CC1=O)NS(=O)(=O)c1ccc(Cl)cc1 [Example 24, Ethyl (2S)-3-{[2-(4-{4-[amino(imino)methyl]phenyl}-2-oxopiperazino)acetyl]amino}-2-{[(4-chlorophenyl)sulphonyl]amino}propanoate acetate] | 
6 | 0.2 µM | 9.5e-05 M | CCOC(=O)[C@H](CNC(=O)CN1CCN(c2ccc(C(=N)N)cc2)CC1=O)NS(=O)(=O)c1ccc2ccccc2c1 [Example 25, Ethyl (2S)-3-{[2-(4-{4-[amino(imino)methyl]phenyl}-2-oxopiperazino)acetyl]amino}-2-[(2-naphthylsulphonyl)amino]propanoate acetate] | 
7 | 1.8 µM | 5.3e-06 M | CCOC(=O)[C@H](CNC(=O)CN1CCN(c2ccc(C(=N)N)cc2)C(=O)C1)NS(=O)(=O)c1ccccc1 [Example 29, Ethyl (2S)-3-{[2-(4-{4-[amino(imino)methyl]phenyl}-3-oxopiperazino)acetyl]amino}-2-[(phenylsulphonyl)amino]propanoate acetate] | 
8 | 0.094 µM | 1.2e-07 M | N=C(N)c1ccc(N2CCN(CC(=O)NC[C@H](NS(=O)(=O)c3ccccc3)C(=O)O)C(=O)C2)cc1 [Example 30, (2S)-3-{[2-(4-{4-[amino(imino)methyl]phenyl}-2-oxopiperazino)acetyl]amino}-2-[(phenylsulphonyl)amino]propanoic acid hydrochloride] | 
9 | 0.31 µM | 3.4e-07 M | Cc1ccc(S(=O)(=O)N[C@@H](CNC(=O)CN2CCN(c3ccc(C(=N)N)cc3)CC2=O)C(=O)O)cc1 [Example 31, (2S)-3-{[2-(4-{4-[Amino(imino)methyl]phenyl}-2-oxopiperazino)acetyl]amino}-2-{[4-toluenesulphonyl]amino}propanoic acid hydrochloride] | 
10 |  |  | CCOC(=O)[C@H](CNC(=O)CN1CCN(c2ccc(C(=N)N3CCOCC3)cc2)CC1=O)NS(=O)(=O)c1ccc(C)cc1 [Example 40] | 1 µM
11 | 1.6 µM |  | CCOC(=O)[C@H](CNC(=O)CN1CCN(c2ccc(C(=N)N3CCCCC3)cc2)CC1=O)NS(=O)(=O)c1ccc(C)cc1 [Example 41, Ethyl (2S)-3-{[2-(4-{4-[imino(piperidino)methyl]phenyl}-2-oxopiperazino)acetyl]amino}-2-{[4-toluenesulphonyl]amino}propanoate] | 

Row | Structure (SMILES) | IC50 (Guinea Pig Platelets; [1]) | IC50 (Human Platelets) | IC50 (Guinea Pig Platelets)
12 | CCOC(=O)[C@H](CNC(=O)CN1CCN(c2ccc(C(=N)N)cc2)CC1=O)NC(=O)OCC(C)C [Example 26, Ethyl (2S)-3-{[2-(4-{4-[amino(imino)methyl]phenyl}-2-oxopiperazino)acetyl]amino}-2-[(isobutoxycarbonyl)amino]propanoate acetate] | 0.4 µM | 5.7e-06 M | 
